In ChEMBL document CHEMBL1141779, “Sesterterpenoids, terretonins A-D, and an alkaloid, asterrelenin, from Aspergillus terreus” (J Nat Prod, 2005):

What was measured:
[1] = molecular target: Sucrase-isomaltase, intestinal (Homo sapiens, UniProt P14410); test: Inhibition of sucrase
[2] = Inhibition of alpha-amylase
[3] = Cytotoxicity against human N04 cells; type: functional
[4] = Cytotoxicity against human Lu04 cells; type: functional
[5] = molecular target: Maltase-glucoamylase (Homo sapiens, UniProt O43451); test: Inhibition of maltase
[6] = Cytotoxicity against human Bre04 cells; type: functional

Sequence of Maltase-glucoamylase (O43451 whole entry): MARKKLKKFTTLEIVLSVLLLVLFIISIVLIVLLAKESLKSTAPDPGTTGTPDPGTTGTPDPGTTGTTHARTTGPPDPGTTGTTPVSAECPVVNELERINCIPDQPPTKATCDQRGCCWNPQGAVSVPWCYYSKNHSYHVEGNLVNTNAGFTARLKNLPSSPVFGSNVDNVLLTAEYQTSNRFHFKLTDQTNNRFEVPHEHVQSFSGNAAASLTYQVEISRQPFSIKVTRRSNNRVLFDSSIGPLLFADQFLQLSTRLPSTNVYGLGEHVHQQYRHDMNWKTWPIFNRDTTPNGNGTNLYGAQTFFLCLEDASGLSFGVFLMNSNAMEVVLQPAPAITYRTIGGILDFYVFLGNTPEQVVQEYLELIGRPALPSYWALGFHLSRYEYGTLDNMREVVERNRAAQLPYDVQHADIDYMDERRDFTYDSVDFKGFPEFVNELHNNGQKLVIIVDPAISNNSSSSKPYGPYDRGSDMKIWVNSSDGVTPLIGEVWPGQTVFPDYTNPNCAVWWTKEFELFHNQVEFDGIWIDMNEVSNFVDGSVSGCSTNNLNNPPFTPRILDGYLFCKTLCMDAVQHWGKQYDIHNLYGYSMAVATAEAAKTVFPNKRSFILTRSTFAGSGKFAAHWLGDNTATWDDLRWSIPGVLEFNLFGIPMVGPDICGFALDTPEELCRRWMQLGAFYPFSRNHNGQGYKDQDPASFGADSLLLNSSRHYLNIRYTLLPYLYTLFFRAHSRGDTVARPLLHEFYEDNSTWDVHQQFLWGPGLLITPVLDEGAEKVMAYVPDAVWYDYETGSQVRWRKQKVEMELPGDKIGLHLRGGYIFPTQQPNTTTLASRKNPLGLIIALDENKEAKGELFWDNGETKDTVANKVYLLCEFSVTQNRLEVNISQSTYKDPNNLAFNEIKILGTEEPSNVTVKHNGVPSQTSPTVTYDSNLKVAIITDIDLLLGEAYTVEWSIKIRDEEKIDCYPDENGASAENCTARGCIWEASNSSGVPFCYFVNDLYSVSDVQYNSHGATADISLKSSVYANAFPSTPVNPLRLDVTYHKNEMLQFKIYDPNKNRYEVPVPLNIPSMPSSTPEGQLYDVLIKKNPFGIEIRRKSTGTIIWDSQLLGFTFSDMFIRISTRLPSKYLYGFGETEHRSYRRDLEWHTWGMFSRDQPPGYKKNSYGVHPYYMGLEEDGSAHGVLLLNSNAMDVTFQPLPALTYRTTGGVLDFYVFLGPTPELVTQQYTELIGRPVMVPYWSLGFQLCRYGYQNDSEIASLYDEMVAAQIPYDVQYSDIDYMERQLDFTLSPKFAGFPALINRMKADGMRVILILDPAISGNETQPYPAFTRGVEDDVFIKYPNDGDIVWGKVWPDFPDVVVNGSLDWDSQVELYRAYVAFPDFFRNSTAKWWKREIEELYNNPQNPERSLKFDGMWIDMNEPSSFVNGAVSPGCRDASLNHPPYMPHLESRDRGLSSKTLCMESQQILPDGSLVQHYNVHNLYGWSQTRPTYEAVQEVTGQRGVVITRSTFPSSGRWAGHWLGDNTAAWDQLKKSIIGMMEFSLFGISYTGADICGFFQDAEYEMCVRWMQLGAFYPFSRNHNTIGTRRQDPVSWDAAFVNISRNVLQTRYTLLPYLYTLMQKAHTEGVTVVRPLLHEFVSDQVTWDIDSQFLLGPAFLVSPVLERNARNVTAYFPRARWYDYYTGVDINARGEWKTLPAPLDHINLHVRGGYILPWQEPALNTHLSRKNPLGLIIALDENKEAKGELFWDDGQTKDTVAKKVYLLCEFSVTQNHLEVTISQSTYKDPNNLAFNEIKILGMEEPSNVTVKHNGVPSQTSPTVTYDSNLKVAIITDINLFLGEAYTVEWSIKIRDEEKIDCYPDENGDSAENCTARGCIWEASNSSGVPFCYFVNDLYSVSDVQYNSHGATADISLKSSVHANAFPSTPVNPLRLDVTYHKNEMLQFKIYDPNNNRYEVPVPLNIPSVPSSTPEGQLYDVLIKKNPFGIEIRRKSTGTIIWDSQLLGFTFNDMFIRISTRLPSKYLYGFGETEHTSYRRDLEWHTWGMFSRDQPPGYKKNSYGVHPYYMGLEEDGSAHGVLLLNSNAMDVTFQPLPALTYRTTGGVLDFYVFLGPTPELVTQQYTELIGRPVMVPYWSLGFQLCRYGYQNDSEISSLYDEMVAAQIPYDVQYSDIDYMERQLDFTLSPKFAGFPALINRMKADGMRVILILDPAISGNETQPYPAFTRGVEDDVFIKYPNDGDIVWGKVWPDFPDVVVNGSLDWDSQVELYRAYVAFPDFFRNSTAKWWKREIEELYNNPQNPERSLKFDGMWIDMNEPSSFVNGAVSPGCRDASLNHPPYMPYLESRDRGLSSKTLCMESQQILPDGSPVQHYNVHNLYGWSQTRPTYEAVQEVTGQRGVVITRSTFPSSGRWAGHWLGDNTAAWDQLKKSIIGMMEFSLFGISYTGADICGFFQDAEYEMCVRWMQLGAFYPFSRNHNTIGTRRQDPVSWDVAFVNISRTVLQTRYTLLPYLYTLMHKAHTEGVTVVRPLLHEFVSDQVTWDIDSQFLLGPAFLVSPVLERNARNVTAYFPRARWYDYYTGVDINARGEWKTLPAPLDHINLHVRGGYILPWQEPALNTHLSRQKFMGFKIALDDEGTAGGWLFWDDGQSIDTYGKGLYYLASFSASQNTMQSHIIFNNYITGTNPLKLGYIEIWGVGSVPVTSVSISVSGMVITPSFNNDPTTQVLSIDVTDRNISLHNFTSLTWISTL
Sequence of Sucrase-isomaltase, intestinal (P14410 2-1007 limits assumed): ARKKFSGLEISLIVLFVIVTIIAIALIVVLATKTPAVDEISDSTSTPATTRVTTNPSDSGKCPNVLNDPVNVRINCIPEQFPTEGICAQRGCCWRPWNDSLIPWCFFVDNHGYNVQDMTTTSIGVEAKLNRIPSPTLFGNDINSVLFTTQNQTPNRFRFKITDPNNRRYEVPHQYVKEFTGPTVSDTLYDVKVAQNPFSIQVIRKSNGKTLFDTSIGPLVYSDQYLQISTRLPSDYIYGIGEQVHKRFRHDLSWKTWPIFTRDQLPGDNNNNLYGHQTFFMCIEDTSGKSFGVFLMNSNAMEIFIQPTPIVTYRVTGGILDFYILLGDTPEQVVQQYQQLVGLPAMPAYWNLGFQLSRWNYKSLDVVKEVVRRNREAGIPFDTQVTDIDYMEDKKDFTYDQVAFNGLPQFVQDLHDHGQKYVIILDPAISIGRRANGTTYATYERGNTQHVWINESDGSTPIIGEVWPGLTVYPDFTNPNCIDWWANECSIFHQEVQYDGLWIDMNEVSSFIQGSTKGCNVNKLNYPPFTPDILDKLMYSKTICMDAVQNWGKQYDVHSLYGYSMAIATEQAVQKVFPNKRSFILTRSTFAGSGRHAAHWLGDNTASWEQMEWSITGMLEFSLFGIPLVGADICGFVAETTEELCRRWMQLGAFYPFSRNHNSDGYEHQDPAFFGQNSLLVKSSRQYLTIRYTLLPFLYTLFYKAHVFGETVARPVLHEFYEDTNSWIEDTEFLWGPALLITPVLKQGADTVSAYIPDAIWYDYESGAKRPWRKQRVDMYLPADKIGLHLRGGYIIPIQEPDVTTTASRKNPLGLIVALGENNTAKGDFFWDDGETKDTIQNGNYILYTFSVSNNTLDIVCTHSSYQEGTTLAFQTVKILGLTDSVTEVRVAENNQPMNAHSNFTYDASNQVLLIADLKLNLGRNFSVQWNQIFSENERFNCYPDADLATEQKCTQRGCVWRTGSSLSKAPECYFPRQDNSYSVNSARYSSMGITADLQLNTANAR
Sequence of Sucrase-isomaltase, intestinal (P14410 1008-1827 limits assumed): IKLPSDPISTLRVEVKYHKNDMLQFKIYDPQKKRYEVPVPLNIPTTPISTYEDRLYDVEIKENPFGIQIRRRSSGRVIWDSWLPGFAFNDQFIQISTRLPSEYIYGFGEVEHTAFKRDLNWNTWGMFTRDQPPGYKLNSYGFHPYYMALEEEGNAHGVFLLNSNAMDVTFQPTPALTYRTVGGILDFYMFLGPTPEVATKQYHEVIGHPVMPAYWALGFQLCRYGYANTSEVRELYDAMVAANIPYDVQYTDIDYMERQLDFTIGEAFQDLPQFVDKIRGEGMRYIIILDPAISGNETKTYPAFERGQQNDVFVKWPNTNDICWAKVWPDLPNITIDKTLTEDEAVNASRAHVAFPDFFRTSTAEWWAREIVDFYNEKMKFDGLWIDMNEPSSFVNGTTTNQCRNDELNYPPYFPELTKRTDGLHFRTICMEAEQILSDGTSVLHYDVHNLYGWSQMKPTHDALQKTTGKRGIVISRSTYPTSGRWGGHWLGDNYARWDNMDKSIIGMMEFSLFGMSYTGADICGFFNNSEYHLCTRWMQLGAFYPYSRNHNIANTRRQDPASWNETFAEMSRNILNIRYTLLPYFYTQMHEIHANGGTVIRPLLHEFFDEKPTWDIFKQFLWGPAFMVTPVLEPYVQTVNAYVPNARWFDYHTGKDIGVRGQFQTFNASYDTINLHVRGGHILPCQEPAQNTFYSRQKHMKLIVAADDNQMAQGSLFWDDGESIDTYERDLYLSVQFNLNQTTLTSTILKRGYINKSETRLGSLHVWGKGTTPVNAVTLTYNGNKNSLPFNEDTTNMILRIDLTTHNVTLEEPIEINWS

In the case of `C=C1C[C@H]2[C@@](C)(C(=O)C(O)=C3C(C)(C)C(=O)CC[C@@]32C)[C@@H]2C(=O)O[C@@](C)(C(=O)OC)C(=O)[C@@]12C` [TERRETONIN A], the IC50 [1] is reported as over 212 µM, the IC50 [2] is reported as over 100 µg/mL and the GI50 [3] is reported as over 100 µg/mL. It also gave a GI50 [4] of over 100 µg/mL, an IC50 [5] of over 212 µM and a GI50 [6] of over 100 µg/mL.

Work on `C=C1C[C@]2(O)[C@@]3(C)CCC(=O)C(C)(C)C3=C(O)C(=O)[C@@]2(C)[C@@H]2C(=O)O[C@@](C)(C(=O)OC)C(=O)[C@@]12C` [TERRETONIN] yielded an IC50 [1] of over 205 µM, an IC50 [2] of over 100 µg/mL and a GI50 [3] of over 100 µg/mL. The GI50 [4] was over 100 µg/mL, the IC50 [5] was over 205 µM and the GI50 [6] was over 100 µg/mL.

`COc1cc(-c2cc3c(c(=O)o2)C[C@]2(O)[C@@]4(C)C(=O)C=CC(C)(C)[C@]4(O)CC[C@@]2(C)O3)cc2c1OCO2` [TERRITREM A] showed an IC50 [1] of over 196 µM, an IC50 [2] of over 100 µg/mL and a GI50 [3] of over 100 µg/mL. The GI50 [4] was over 100 µg/mL, the IC50 [5] was over 196 µM and the GI50 [6] was over 100 µg/mL.
